Patent US20150045366A1, “SPRAY DRIED FORMULATIONS” (Gilead Sciences, Inc., priority 2012, published 2015)

Assay: Hygroscopicity: weight gain and moisture induced phase transition in humidity-controlled desiccator
Format: physicochemical
Experimental: Hygroscopicity of the compositions of invention were measured by placing approximately 20 to 50 mg of the sample in an uncapped scintillation vial. The vial was stored at ambient temperature in a Pyrex brand desiccator (VWR, International, West Chester, Pa.). The humidity within the desiccator was controlled at 55% relative humidity and 75% relative humidity using saturated aqueous solutions of […] and sodium chloride, respectively. The relative humidity was confirmed using a digital hygrometer pen (VWR International, West Chester, Pa.). The weight gain for all the samples was determined after 24 hours; it was not determined whether equilibrium was reached after that period. Visual observation of moisture induced phase transition was also noted.

For `CC(C)c1nc(CN(C)C(=O)N[C@@H](CCN2CCOCC2)C(=O)N[C@H](CC[C@H](Cc2ccccc2)NC(=O)OCc2cncs2)Cc2ccccc2)cs1` [Compound Free base, thiazol-5-ylmethyl (2R,5R)-5-((S)-2-(3-((2-isopropylthiazol-4-yl)methyl)-3-methylureido)-4-morpholinobutanamido)-1,6-diphenylhexan-2-ylcarbamate], the “Weight gain at 55% RH” value (55% relative humidity, ambient temperature, after 24 hours) was 1.9%, the “Weight gain at 75% RH” value (75% relative humidity, ambient temperature, after 24 hours) was 3.7% and the “Phase transition (at 55% RH)” value (visual observation of moisture induced phase transition, 55% RH, 24 hours) was “yes”. The “Phase transition (at 75% RH)” value (visual observation of moisture induced phase transition, 75% RH, 24 hours) was “yes”.
